From PubChem BioAssay AID493148 (Sanford-Burnham Center for Chemical Genomics, 2011)
Activity calls are given as the source filed them. No rule for the calls is given here.

Biological target: Alkaline phosphatase, tissue-nonspecific isozyme (Homo sapiens) (UniProt P05186)
Test: inhibition of tissue-nonspecific alkaline phosphatase – biochemical, selectivity assay for mouse IAP inhibitor project, SAR follow-up (AID 493148)
Conditions: purified enzyme, CDP-Star luminescence, 30 min

Sequence of Alkaline phosphatase, tissue-nonspecific isozyme (Homo sapiens) (P05186 whole entry, looked up): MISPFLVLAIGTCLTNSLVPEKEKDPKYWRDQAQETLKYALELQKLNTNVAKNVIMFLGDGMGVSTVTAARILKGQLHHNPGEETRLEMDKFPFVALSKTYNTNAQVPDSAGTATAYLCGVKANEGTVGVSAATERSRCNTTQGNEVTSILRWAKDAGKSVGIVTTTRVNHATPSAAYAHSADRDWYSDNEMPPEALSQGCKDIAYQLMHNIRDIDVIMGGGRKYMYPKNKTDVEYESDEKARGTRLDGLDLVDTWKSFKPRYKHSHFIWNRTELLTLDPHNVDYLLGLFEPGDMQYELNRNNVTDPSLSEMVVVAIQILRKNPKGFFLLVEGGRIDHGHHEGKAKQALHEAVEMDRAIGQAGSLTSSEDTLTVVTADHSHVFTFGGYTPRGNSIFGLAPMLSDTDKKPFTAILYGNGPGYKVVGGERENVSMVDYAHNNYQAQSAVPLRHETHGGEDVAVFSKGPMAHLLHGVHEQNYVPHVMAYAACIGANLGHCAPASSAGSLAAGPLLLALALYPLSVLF

IC50	SMILES
> 100 µM (inactive)	Cc1ccc(C)c(NC(=S)NCCC(c2ccccc2)c2ccccc2)c1
> 100 µM (inactive)	C=CCn1cc(CN2CCC(C(=O)Nc3cccc(-c4cccc(Cl)c4)c3)CC2)c(C)n1
> 100 µM (inactive)	Cc1cc(C)cc(NC(=S)NCCC(c2ccccc2)c2ccccc2)c1
> 100 µM (inactive)	CCn1ncc(CN2CCC(C(=O)Nc3cccc(-c4cccc(F)c4)c3)CC2)c1C
> 100 µM (inactive)	Cc1cccc(NC(=S)NCCC(c2ccccc2)c2ccccc2)c1C
> 100 µM (inactive)	CN1CCC(=NNC(=O)c2cc(O)c(O)c(O)c2)CC1
> 100 µM (inactive)	O=C(Nc1cccc(-c2cccc(Cl)c2)c1)C1CCN(C2CCC2)CC1
> 100 µM (inactive)	CCCn1ncc(CN2CCC(C(=O)Nc3cccc(-c4cccc(F)c4)c3)CC2)c1C
> 100 µM (inactive)	CC1(c2ccccc2)CC(C)(C)N(C(=S)Nc2ccccc2)c2ccccc21 (stereo not drawn)
> 100 µM (inactive)	CCn1cc(CN2CCC(C(=O)Nc3cccc(-c4cccc(OC)c4)c3)CC2)cn1
> 100 µM (inactive)	Cc1ccc(NC(=S)NCCC(c2ccccc2)c2ccccc2)cc1C
> 100 µM (inactive)	O=C(CN1C(=O)/C(=C\c2ccco2)SC1=S)Nc1ccccc1C(=O)O
> 100 µM (inactive)	O=[N+]([O-])c1ccc(NC(=S)NCCC(c2ccccc2)c2ccccc2)cc1
11.4 µM	CCc1ccccc1Nc1nc(-c2ccc(O)c(O)c2)cs1
> 100 µM (inactive)	CCn1cc(CN2CCC(C(=O)Nc3cccc(-c4cccc(F)c4)c3)CC2)cn1
6.4 µM	Oc1ccc(-c2csc(Nc3cccc4ccccc34)n2)cc1O
34.4 µM	COc1ccc(C(=O)CSc2n[nH]c(-c3ccccc3)n2)cc1OC
> 100 µM (inactive)	S=C(NCCC(c1ccccc1)c1ccccc1)Nc1cccc(Cl)c1
> 100 µM (inactive)	COc1ccc(Cl)cc1NC(=S)NCCC(c1ccccc1)c1ccccc1
> 100 µM (inactive)	Cn1cc(CN2CCC(C(=O)Nc3cccc(-c4cccc(Cl)c4)c3)CC2)cn1
> 100 µM (inactive)	Fc1ccccc1NC(=S)NCCC(c1ccccc1)c1ccccc1
> 100 µM (inactive)	CC(C)n1cc(CN2CCC(C(=O)Nc3cccc(-c4cccc(Cl)c4)c3)CC2)cn1
> 100 µM (inactive)	Cc1nn(C)c(Cl)c1CN1CCC(C(=O)Nc2cccc(-c3cccc(F)c3)c2)CC1

IC50	SMILES
> 100 µM (inactive)	Cc1cc(NC(=O)CCNS(=O)(=O)c2ccc3[nH]c(=O)oc3c2)ccc1Br
> 100 µM (inactive)	Cc1cc(=O)oc2cc(NC(=S)NCCC(c3ccccc3)c3ccccc3)ccc12
> 100 µM (inactive)	COC(=O)c1cc(NC(=S)NCCC(c2ccccc2)c2ccccc2)cc(C(=O)OC)c1
> 100 µM (inactive)	CCn1c(SCC(=O)c2ccc(O)c(O)c2)nnc1-c1ccccc1OC
> 100 µM (inactive)	CCN1CCN(S(=O)(=O)c2ccc3[nH]c(=O)oc3c2)CC1
> 100 µM (inactive)	COc1cccc(-c2cccc(NC(=O)C3CCN(Cc4ccc(C)o4)CC3)c2)c1
> 100 µM (inactive)	S=C(NCCC(c1ccccc1)c1ccccc1)Nc1ccc(Cl)cc1Cl
> 100 µM (inactive)	O=C(Nc1cccc(-c2cccc(F)c2)c1)C1CCN(Cc2ccc(CO)o2)CC1
> 100 µM (inactive)	FC(F)(F)c1cccc(NC(=S)NCCC(c2ccccc2)c2ccccc2)c1
> 100 µM (inactive)	O=S(=O)(Nc1ncccn1)c1ccc(NC(=S)NCCC(c2ccccc2)c2ccccc2)cc1
> 100 µM (inactive)	CC(C)N1CCC(=NNC(=O)c2cc(O)c(O)c(O)c2)CC1
> 100 µM (inactive)	Cn1cc(CN2CCC(C(=O)Nc3cccc(-c4cccc(F)c4)c3)CC2)cn1
> 100 µM (inactive)	Cc1cc(Cl)ccc1NC(=S)NCCC(c1ccccc1)c1ccccc1
> 100 µM (inactive)	CCn1nc(C)c(CN2CCC(C(=O)Nc3cccc(-c4cccc(Cl)c4)c3)CC2)c1C
> 100 µM (inactive)	CCn1nc(C)c(CN2CCC(C(=O)Nc3cccc(-c4cccc(F)c4)c3)CC2)c1C
> 100 µM (inactive)	O=C(Nc1cccc(-c2cccc(Cl)c2)c1)C1CCN(Cc2ccc(CO)o2)CC1
> 100 µM (inactive)	S=C(NCCC(c1ccccc1)c1ccccc1)Nc1ccc(Nc2ccccc2)cc1
> 100 µM (inactive)	CC(C)n1cc(CN2CCC(C(=O)Nc3cccc(-c4cccc(F)c4)c3)CC2)cn1
> 100 µM (inactive)	CCOC(=O)c1ccc(NC(=S)NCCC(c2ccccc2)c2ccccc2)cc1
> 100 µM (inactive)	COc1cccc(-c2cccc(NC(=O)C3CCN(Cc4ccc(CO)o4)CC3)c2)c1
> 100 µM (inactive)	S=C(NCCC(c1ccccc1)c1ccccc1)Nc1ccc(Cl)cc1
> 100 µM (inactive)	Fc1ccc(NC(=S)NCCC(c2ccccc2)c2ccccc2)cc1Cl
> 100 µM (inactive)	NS(=O)(=O)c1ccc(NC(=S)NCCC(c2ccccc2)c2ccccc2)cc1

IC50	SMILES
> 100 µM (inactive)	COc1cc(NC(=S)NCCC(c2ccccc2)c2ccccc2)cc(OC)c1
> 100 µM (inactive)	S=C(NCCC(c1ccccc1)c1ccccc1)Nc1ccccc1
> 100 µM (inactive)	O=C(CN1C(=O)/C(=C/c2ccco2)SC1=S)Nc1ccc(C(=O)O)cc1
> 100 µM (inactive)	COc1ccc(Cl)cc1Nc1nc(-c2ccc(O)c(O)c2)cs1
> 100 µM (inactive)	CC(C)c1ccccc1NC(=S)NCCC(c1ccccc1)c1ccccc1
> 100 µM (inactive)	COc1cccc(NC(=S)NCCC(c2ccccc2)c2ccccc2)c1
> 100 µM (inactive)	Cc1nn(C(C)C)c(C)c1CN1CCC(C(=O)Nc2cccc(-c3cccc(F)c3)c2)CC1
> 100 µM (inactive)	S=C(NCCC(c1ccccc1)c1ccccc1)Nc1ccc(Cl)c(Cl)c1
> 100 µM (inactive)	Cc1c(Cl)cccc1NC(=S)NCCC(c1ccccc1)c1ccccc1
> 100 µM (inactive)	C=CCn1cc(CN2CCC(C(=O)Nc3cccc(-c4cccc(F)c4)c3)CC2)c(C)n1
> 100 µM (inactive)	O=C(CN1C(=O)/C(=C/c2ccco2)SC1=S)Nc1cccc(C(=O)O)c1
> 100 µM (inactive)	CCn1cc(CN2CCC(C(=O)Nc3cccc(-c4cccc(OC)c4)c3)CC2)c(C)n1
> 100 µM (inactive)	Cc1ccc(NC(=S)NCCC(c2ccccc2)c2ccccc2)cc1
> 100 µM (inactive)	Cc1ccc(NC(=O)CCNS(=O)(=O)c2ccc3[nH]c(=O)oc3c2)cc1C
> 100 µM (inactive)	Cc1ccc(CN2CCC(C(=O)Nc3cccc(-c4cccc(F)c4)c3)CC2)o1
> 100 µM (inactive)	CN(C)S(=O)(=O)c1cccc(NC(=S)NCCC(c2ccccc2)c2ccccc2)c1
> 100 µM (inactive)	COc1cc([N+](=O)[O-])ccc1NC(=S)NCCC(c1ccccc1)c1ccccc1
> 100 µM (inactive)	COCc1ccc(CN2CCC(C(=O)Nc3cccc(-c4cccc(Cl)c4)c3)CC2)o1
> 100 µM (inactive)	Cc1c(CN2CCC(C(=O)Nc3cccc(-c4cccc(Cl)c4)c3)CC2)cnn1C
> 100 µM (inactive)	COc1ccc(NC(=S)NCCC(c2ccccc2)c2ccccc2)cc1
> 100 µM (inactive)	Cc1c(Cl)cccc1Nc1nc(-c2ccc(O)c(O)c2)cs1
> 100 µM (inactive)	CCn1cc(CN2CCC(C(=O)Nc3cccc(-c4cccc(Cl)c4)c3)CC2)cn1
